Experimental data: patent US10398696B2, “Combinations for treatment of cancer” (Stichting Het Nederlands Kanker Instituut-Antoni van …, priority 2013, dated 2019)

What was measured:
[1] = tested on: SW837 colon cells; assay: long-term proliferation assay, SW837; assay type: cell-based; details: MEK inhibitor selumetinib (FIG. 3)
[2] = tested on: H358 lung cells; assay: long-term proliferation assay, H358; assay type: cell-based; details: MEK inhibitor selumetinib (FIG. 2)
Description: FIG. 1 Suppression of ERBB3 by shRNA enhances response to MEK inhibitor. H358 KRAS mutant (Non-Small Cell Lung Cancer (NSCLC) cells were infected with two independent shRNAs targeting ERBB3 as indicated. pLKO vector serves as a control vector. After puromycin selection, cells were cultured in the absence or presence of 1 μM selumetinib for 20 days.
FIG. 2 […] lung cancer cells were cultured in increasing concentration of MEK inhibitor selumetinib alone, EGFR inhibitor gefitinib alone, ERBB2 inhibitor CP724714 alone, EGFR/ERBB2 dual inhibitor afatinib, EGFR/ERBB2 dual inhibitor dacomitinib alone or their combinations as indicated. Cells were harvested, fixed and stained after 21 days.
Recently the use of a kinome-centered synthetic lethal screening approach, which enables the identification of kinases whose inhibition is strongly synergistic with a cancer drug of interest has been described (Prahallad et al., 2012). […] Each of these knockdown vectors has a unique DNA-based molecular bar code identifier, which allows quantification of the relative abundance of each of the shRNA vectors in the presence and absence of drug (Prahallad et al., 2012). […] After 21 days, genomic DNA was isolated from both cells of the treated and untreated populations and the bar codes contained in the shRNA cassettes were recovered by PCR and their abundance determined by deep sequencing. […]

For `COc1cc2ncnc(Nc3ccc(F)c(Cl)c3)c2cc1NC(=O)/C=C/CN1CCCCC1` [dacometinib], the “synergy with MEK inhibition in long-term proliferation assays” value [1] was “strong synergy” and the “synergy with MEK inhibition in long-term proliferation assays” value [2] was “strong synergy”.
